Laboratory results reported in US10562882B2, “Piperidine derivatives for use in the treatment or prevention of psychiatric and neurological conditions” (Takeda Pharmaceutical Company Limited, priority 2013, dated 2020).
Structures can show the parent of a compound that is named as a salt.

Target: human PKR1 receptors (Homo sapiens (Human), UniProt Q8TCW9)
Test: PKR1 antagonist intracellular calcium (FLIPR) assay, block of PK1-mediated calcium release
Assay type: cell-based
Settings: RBL2H3 cells expressing human PKR1; PK1 at EC80; minimum of two independent assays
Method: Prokineticin receptor 1 (PKR1) antagonists may be functionally assessed by measurement of change in intracellular calcium levels induced by Gq mediated increase in inositol triphosphate (IP3) levels. The ability of a compound to block the intracellular release of calcium mediated by PK1 in RBL2H3 cells expressing human PKR1 receptors is determined as a measure of the compound's antagonist activity in vitro.
Approximately 10,000 cells per assay well are seeded in normal culture medium in a 384 well plate (Corning). Twenty-four hours after seeding, the cells are loaded with a calcium sensitive fluorescent dye by replacing the culture medium with assay buffer (1× Hanks buffered saline, 25 mM HEPES, 0.1% w/v fatty acid free BSA (bovine serum albumin), pH 7.4) containing 1 mM probenecid and 1× Calcium 5 Reagent (Molecular Devices). Cells are incubated at 37° C. for 1 hour to allow for dye uptake.
To test for antagonist activity, test compounds at a final concentration range between 0.32 nM-10 μM (diluted in assay buffer) are added to duplicate assay wells and allowed to incubate for 10 minutes prior to stimulation with PK1. After incubation with test compounds the assay plate is placed in a FLIPR Tetra (Molecular Devices) and PK1 (diluted in assay buffer) is added at the determined EC80 concentration (final). Ligand-dependent changes in intracellular calcium levels are determined by measuring changes in fluorescence of the dye at […] following excitation at 485 nm. […] A minimum of two IC50 values determined from independent assays are generated for each compound.

human PKR1 receptors, sequence (Q8TCW9 whole entry): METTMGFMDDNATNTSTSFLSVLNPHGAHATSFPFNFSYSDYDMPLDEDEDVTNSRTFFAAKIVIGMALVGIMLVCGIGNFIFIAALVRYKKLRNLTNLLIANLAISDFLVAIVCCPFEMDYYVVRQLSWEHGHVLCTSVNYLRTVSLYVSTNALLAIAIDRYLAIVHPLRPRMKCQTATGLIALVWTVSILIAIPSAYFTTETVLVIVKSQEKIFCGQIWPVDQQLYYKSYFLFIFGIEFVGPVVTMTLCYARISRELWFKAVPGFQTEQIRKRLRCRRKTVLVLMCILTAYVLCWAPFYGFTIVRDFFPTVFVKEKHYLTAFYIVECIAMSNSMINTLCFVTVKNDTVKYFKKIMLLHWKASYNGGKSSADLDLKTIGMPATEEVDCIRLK

IC50 [nM] | Compound
510 | COC1(c2ncc(Cl)cc2C(F)(F)F)CCCN(C(=O)c2ccnc(N(C)C)c2)C1 (stereo not drawn) [Example 33, 4-{3-[5-Chloro-3-(trifluoromethyl)pyridin-2-yl]-3-methoxypiperidine-1-carbonyl}-N,N-dimethylpyridin-2-amine]
920 | COC1(c2ncc(Cl)cc2C)CCCN(C(=O)c2cnnc(N(C)C)c2)C1 (stereo not drawn) [Example 37, 5-[3-(5-Chloro-3-methylpyridin-2-yl)-3-methoxypiperidine-1-carbonyl]-N,N-dimethylpyridazin-3-amine]
400 | Cc1cc(Cl)cnc1C1(F)CCCN(C(=O)c2cnnc(N(C)C)c2)C1 (stereo not drawn) [Example 39, 5-[3-(5-Chloro-3-methylpyridin-2-yl)-3-fluoropiperidine-1-carbonyl]-N,N-dimethylpyridazin-3-amine]
2390 | CCn1cc(C(=O)N2CCCC(F)(c3ncc(Cl)cc3C)C2)cn1 (stereo not drawn) [Example 41, 5-Chloro-2-[1-(1-ethyl-1H-pyrazole-4-carbonyl)-3-fluoropiperidin-3-yl]-3-methylpyridine]
2170 | CCn1c(C2CCCN(C(=O)c3cnnc(NC)c3)C2)c(C)c2ccccc21 (stereo not drawn) [Example 18, 5-[3-(1-Ethyl-3-methyl-1H-indol-2-yl)piperidine-1-carbonyl]-N-methylpyridazin-3-amine]
3120 | CCn1c(C2CCCN(C(=O)c3cn(C)nc3N)C2)cc2cc(C)ccc21 (stereo not drawn) [Example 26, 4-[3-(1-Ethyl-5-methyl-1H-indol-2-yl)piperidine-1-carbonyl]-1-methyl-1H-pyrazol-3-amine]
1250 | CNc1cc(C(=O)N2CCCC(F)(c3ncc(Cl)cc3C)C2)cnn1 (stereo not drawn) [Example 38, 5-[3-(5-Chloro-3-methylpyridin-2-yl)-3-fluoropiperidine-1-carbonyl]-N-methylpyridazin-3-amine]
1880 | CCn1cc(C(=O)N2CCCC(OC)(c3ncc(Cl)cc3C(F)(F)F)C2)cn1 (stereo not drawn) [Example 32, 5-Chloro-2-[1-(1-ethyl-1H-pyrazole-4-carbonyl)-3-methoxypiperidin-3-yl]-3-(trifluoromethyl)pyridine]
480 | CNc1cc(C(=O)N2CCCC(OC)(c3ncc(Cl)cc3C(F)(F)F)C2)ccn1 (stereo not drawn) [Example 29, 4-{3-[5-Chloro-3-(trifluoromethyl)pyridin-2-yl]-3-methoxypiperidine-1-carbonyl}-N-methylpyridin-2-amine formate]
1620 | COC1(c2ncc(Cl)cc2C(F)(F)F)CCCN(C(=O)c2cnnc(N(C)C)c2)C1 (stereo not drawn) [Example 31, 5-{3-[5-Chloro-3-(trifluoromethyl)pyridin-2-yl]-3-methoxypiperidine-1-carbonyl}-N,N-dimethylpyridazin-3-amine]
3410 | CCn1cc(C(=O)N2CCCC(OC)(c3ncc(Cl)cc3C)C2)cn1 (stereo not drawn) [Example 40, 5-Chloro-2-[1-(1-ethyl-1H-pyrazole-4-carbonyl)-3-methoxypiperidin-3-yl]-3-methylpyridine]
330 | CCn1cc(C(=O)N2CCCC(c3cc4ccccc4n3C(C)C)C2)cn1 (stereo not drawn) [Example 15, 2-{1-[(1-Ethyl-1H-pyrazol-4-yl)carbonyl]piperidin-3-yl}-1-(propan-2-yl)-1H-indole]
2590 | CCn1cc(C(=O)N2CCCC(c3cc4cc(C)ccc4n3CC)C2)cn1 (stereo not drawn) [Example 17, 1-Ethyl-2-{1-[(1-ethyl-1H-pyrazol-4-yl)carbonyl]piperidin-3-yl}-5-methyl-1H-indole]
1250 | CCn1c(C2CCCN(C(=O)c3cnnc(NC)c3)C2)cc2cc(Cl)ccc21 (stereo not drawn) [Example 20, 5-[3-(5-Chloro-1-ethyl-1H-indol-2-yl)piperidine-1-carbonyl]-N-methylpyridazin-3-amine]
> 5000 | Cc1cc(Cl)cnc1C1(F)CCCN(C(=O)c2cn(C)nc2N)C1 (stereo not drawn) [Example 43, 4-[3-(5-Chloro-3-methylpyridin-2-yl)-3-fluoropiperidine-1-carbonyl]-1-methyl-1H-pyrazol-3-amine]
2690 | CCn1c(C2CCCN(C(=O)c3cnnc(NC)c3)C2)cc2cc(C)ccc21 (stereo not drawn) [Example 19, 5-[3-(1-Ethyl-5-methyl-1H-indol-2-yl)piperidine-1-carbonyl]-N-methylpyridazin-3-amine]

The next lines start with the molecule.

Compound | IC50 [nM]
CCn1cc(C(=O)N2CCCC(c3nc4ccccc4n3C(C)C)C2)cn1 (stereo not drawn) [Example 7, 2-[1-(1-Ethyl-1H-pyrazole-4-carbonyl)piperidin-3-yl]-1-(propan-2-yl)-1H-1,3-benzodiazole] | 1820
CN(C)c1cc(C(=O)N2CCCC(c3nc4ccccc4n3C)C2)ccn1 (stereo not drawn) [Example 4, N,N-Dimethyl-4-[3-(1-methyl-1H-1,3-benzodiazol-2-yl)piperidine-1-carbonyl]pyridin-2-amine] | 1220
CC(C)n1c(C2CCCN(C(=O)c3ccnc(N(C)C)c3)C2)nc2ccccc21 (racemic) [Example 1, N,N-Dimethyl-4-{3-[1-(propan-2-yl)-1H-1,3-benzodiazol-2-yl]piperidin-1-carbonyl}pyridin-2-amine (racemic)] | 320
CNc1cc(C(=O)N2CCCC(c3cc4ccccc4n3C(C)C)C2)cnn1 (stereo not drawn) [Example 14, N-Methyl-5-{3-[1-(propan-2-yl)-1H-indol-2-yl]piperidine-1-carbonyl}pyridazin-3-amine] | 540
CC(C)n1c(C2CCCN(C(=O)c3ccnc(N(C)C)c3)C2)nc2ccccc21 (single isomer, unassigned; enantiomer 2) [Example 3, N,N-Dimethyl-4-{3-[1-(propan-2-yl)-1H-1,3-benzodiazol-2-yl]piperidine-1-carbonyl}pyridin-2-amine (enantiomer 2)] | 9060
CC(C)n1c(C2CCCN(C(=O)c3cnnc(Cl)c3)C2)nc2ccccc21 (stereo not drawn) [Example 5, 2-[1-(6-Chloropyridazine-4-carbonyl)piperidin-3-yl]-1-(propan-2-yl)-1H-1,3-benzodiazole] | 7460
CN(C)c1cc(C(=O)N2CCCC(c3cc4ccccc4n3C)C2)ccn1 (stereo not drawn) [Example 8, N,N-Dimethyl-4-[3-(1-methyl-1H-indol-2-yl)piperidine-1-carbonyl]pyridin-2-amine] | 1070
CNc1cc(C(=O)N2CCCC(c3nc4ccccc4n3C(C)C)C2)cnn1 (stereo not drawn) [Example 6, N-Methyl-5-{3-[1-(propan-2-yl)-1H-1,3-benzodiazol-2-yl]piperidine-1-carbonyl}pyridazin-3-amine] | 1740
CC(C)n1c(C2CCCN(C(=O)c3ccnc(N(C)C)c3)C2)nc2ccccc21 (single isomer, unassigned; enantiomer 1) [Example 2, N,N-Dimethyl-4-{3-[1-(propan-2-yl)-1H-1,3-benzodiazol-2-yl]piperidine-1-carbonyl}pyridin-2-amine (enantiomer 1)] | 330
CCn1c(C2CCCN(C(=O)c3cnnc(NC)c3)C2)cc2ccccc21 (stereo not drawn) [Example 12, 5-[3-(1-Ethyl-1H-indol-2-yl)piperidine-1-carbonyl]-N-methylpyridazin-3-amine] | 480
CCn1c(C2CCCN(C(=O)c3ccnc(N(C)C)c3)C2)cc2ccccc21 (stereo not drawn) [Example 10, 4-[3-(1-Ethyl-1H-indol-2-yl)piperidine-1-carbonyl]-N,N-dimethylpyridin-2-amine] | 390
